Measurements: ChEMBL document CHEMBL5727053, “Muscarinic M1 receptor positive allosteric modulators” (2019)

Molecular target: T1, Muscarinic acetylcholine receptor M1 (Homo sapiens, UniProt P11229)
T1 sequence (P11229 whole entry): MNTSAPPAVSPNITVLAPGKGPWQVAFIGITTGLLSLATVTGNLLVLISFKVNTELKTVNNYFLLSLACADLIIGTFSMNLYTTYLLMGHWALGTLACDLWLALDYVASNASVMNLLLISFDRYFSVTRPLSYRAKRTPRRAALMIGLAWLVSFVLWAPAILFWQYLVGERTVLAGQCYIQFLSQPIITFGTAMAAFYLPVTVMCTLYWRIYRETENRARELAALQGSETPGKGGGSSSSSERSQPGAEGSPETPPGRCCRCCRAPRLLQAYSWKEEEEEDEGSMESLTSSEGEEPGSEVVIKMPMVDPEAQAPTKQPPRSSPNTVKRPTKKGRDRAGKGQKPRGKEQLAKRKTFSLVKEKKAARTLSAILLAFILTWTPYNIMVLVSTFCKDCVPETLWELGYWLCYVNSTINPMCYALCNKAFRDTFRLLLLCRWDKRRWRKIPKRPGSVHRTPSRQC
Test: Determination of Allosteric Potency EC50 Values for Muscarinic M1 Receptor: A stable CHO cell line expressing recombinant human Muscarinic M1 receptor and pCRE-Luc reporter system was used for cell-based assay. The assay offers a non-radioactive based approach to determine binding of a compound to GPCRs. In this specific assay, the level of intracellular cyclic AMP which is modulated by activation or inhibition of the receptor is measured. The recombinant cells harbor luciferase reporter gene under the control of cAMP response element.The above cells were grown in 96 well clear bottom white plates in Hams F12 medium containing 10% fetal bovine serum (FBS). Prior to the addition of compounds or standard agonist, cells were serum starved overnight. Increasing concentrations of test compounds were added along with EC20 of acetylcholine in OptiMEM medium to the cells. The incubation was continued at 37° C. in CO2 incubator for 4 hours. Medium was removed and cells were washed with phosphate buffered saline. The cells were lysed and luciferase activity was measured in a Luminometer. Luminescence units were plotted against the compound concentrations using Graphpad software. EC50 values of the compounds were defined as the concentration required in stimulating the luciferase activity by 50% in presence of EC20 of acetylcholine.

EC50: 1000 nM
SMILES: O=C(N[C@H]1CCCC[C@@H]1O)C1=CN(Cc2ccccc2)c2cccnc2O1
